Series [1] addresses T1, DDX3X ATPase (Homo sapiens, UniProt O00571).
T1 construct: Recombinant his-tagged human full length DDX3X was cloned into the E. coli expression vector pET-30a(+); His tag; made in house; host or cells: Shuffle T7 E. coli
In words: DDX3X ATPase assay (ADP-Glo). Format: biochemical. The following applies: recombinant human DDX3X, 50 μM ATP, mean ± SD of three experiments; for Ki: read-out: DDX3X ATPase Ki (apparent dissociation constant for inhibitor binding). The protocol: Recombinant his-tagged human full length DDX3X was cloned into the E. coli expression vector pET-30a(+). Shuffle T7 E. coli cells were transformed with the plasmid and grown at 37 °C up to OD600 = 0.7. DDX3X expression was induced with 0.5 mM IPTG at 15 °C O/N. The cells were harvested by centrifugation, lysed, and the crude extract centrifuged at 100.000xg for 60 min. at 4 °C in a Beckman centrifuge before being loaded onto a FPLC Ni-NTA column (GE Healthcare). Column was equilibrated in Buffer A (50 mM Tris-HCl pH 8.0, 250 mM NaCl, 25 mM Imidazole, and 20% glycerol). After extensive washing in Buffer A, the column was eluted with a linear gradient in Buffer A from 25 mM to 250 mM Imidazole. Proteins in the eluted fractions were visualized on SDS-PAGE and then tested for the presence of DDX3X by Western blot with anti-DDX3X A300-475A(BETHYL) at 1:2000 dilution in 5% milk. Fractions containing the purest DDX3X protein were pooled and stored at −80 °C.
The ATPase assay was carried out by using the commercial kit Promega (Milan, Italy), ADP-Glo^TM Kinase Assay. Reaction was performed in 30 mM TrisHCl pH 8, 9 mM MgCl2, 0.05 mg/mL BSA, 50 μM ATP, and 4 μM of recombinant DDX3X. Reaction was performed following the ADP-Glo^TM Kinase Assay Protocol and luminescence was measured with MicroBeta TriLux (Perkin Elmer, Milan, Italy).
Background: In ADP-Glo the light output rises with the ADP produced.

Series [2] is described as follows: Cytotoxicity assay in H9 cells (CellTiter-Glo 2.0). Format: cell-based, human. The conditions noted are these: human; non-infected H9 cells, 72 h. The protocol: (§1) Cytotoxicity in H9 cells was determined by using the CellTiter-Glo 2.0 assay (Promega). H9 cells were seeded at 40,000 cells/well in duplicate in the presence of serial two-fold dilutions of compounds (range 200–1.56 μM) and incubated for 72 h. Cell viability was calculated by measuring cellular ATP as a marker of metabolically active cells through a luciferase based chemical reaction and expressed as the concentration that reduce cell viability by 50%.

Series [3] is described as follows: Parallel Artificial Membrane Permeability Assay (PAMPA). Format: in vitro ADME. The following applies: pH 7.4, 5 h; for Papp at 5 h, 0.5 mM: room temperature, read-out: AppP (apparent permeability). On the procedure:
Finally, we evaluated passive membrane permeability (AppP) while using Parallel Artificial Membrane Permeability Assay (PAMPA). The quantity of compound able to diffuse through a semipermeable artificial membrane was calculated by LC-MS-MS.
Donor solution (0.5 mM) was prepared by diluting 1 mM dimethylsulfoxide (DMSO) compound stock solution while using phosphate buffer (pH 7.4, 0.025 M). Filters were coated with 5 μL of a 1% (w/v) dodecane solution of phosphatidylcholine for intestinal permeability. Donor solution (150 μL) was added to each well of the filter plate. To each well of the acceptor plate was added 300 μL of solution (50% DMSO in phosphate buffer). All of the compounds were tested in three different plates on different days. The sandwich was incubated for 5 h at room temperature under gentle shaking. After the incubation time, the plates were separated, and samples were taken from both receiver and donor sides and analyzed while using LC with UV detection at 280 nm. LC analysis was performed with a PerkinElmer (series 200) instrument that was equipped with an UV detector (PerkinElmer 785A, UV/vis Detector). Chromatographic separation was conducted using a Polaris C18 column (150–4.6 mm, 5 μm particle size) at a flow rate of 0.8 mL min^−1 with a mobile phase composed of 60% ACN/40% H2O-formic acid 0.1% for all compounds. Permeability (Papp) was calculated according to the following equation with some modification to obtain permeability values in cm/s, (1) Papp=VDVA/(VD+VA)At−ln(1−r) where VA is the volume in the acceptor well, VD is the volume in the donor well (cm^3), A is the “effective area” of the membrane (cm^2), t is the incubation time (s), and r the ratio between drug concentration in the acceptor and equilibrium concentration of the drug in the total volume(VD + VA).
Drug concentration is estimated by using the peak area integration. Membrane retentions (%) were calculated according to the following equation:(2) %MR=[r−(D+A)]100/Eq where r is the ratio between drug concentration in the acceptor and equilibrium concentration, D, A, and Eq represented drug concentration in the donor, acceptor, and equilibrium solution, respectively.

A short description of series [4]: Water solubility assay. Format: physicochemical. The following applies: 27 °C, thermodynamic from solid, 1 mg in 1 mL water. The protocol: […] After 24 h of stirring at 27 °C, the mixture was filtered and the quantity of solubilized compound determined by LC-MS-MS. […] By contrast, esters 30 and 31 due to their lipophilicity have values outside the recommended range […].
The appropriate (1 mg) was added to 1 mL of water. The sample was shaken in a shaker bath at room temperature for 24–36 h. The suspensions were filtered through a 0.45 μm nylon filter (Acrodisc, Sigma Aldrich, Milan, Italy) and the solubilized compound determined by LC-MS-MS assay. The determination was performed in triplicate. For the quantification, an LC-MS system consisting of a Varian apparatus (Varian Inc., Palo Alto, CA, USA), including a vacuum solvent degassing unit, two pumps (212-LC), a Triple Quadrupole MSD (Mod. 320-LC) mass spectrometer with ES interface, and Varian MS Workstation System Control Vers. 6.9 software, was used. Chromatographic separation was obtained while using a 3 μm particle size Pursuit C18 column (50 × 2.0 mm) (Varian). Column was equilibrated in Buffer B (aqueous solution of 0.1% formic acid) and eluted with a linear increase from 0% to 70% gradient of Buffer A (ACN) for 10 min. and subsequent increase up to 98% for additional 5 min. The instrument operated in positive mode and the following parameters were used: injection volume 5 μL, flow rate 0.3 mL/min, detector 1850 V, drying gas pressure 25.0 psi, desolvation temperature 300.0 °C, nebulizing gas 45.0 psi, needle 5000 V, and shield 600 V. Nebulizer gas and drying gas was Nitrogen. Argon was the collision gas at a pressure of 1.8 mTorr in the collision cell. Single compound quantification was performed in comparison with standard calibration curves in methanol.

The subject of series [5] is HIV-1 (NL4-3). In words: Antiviral BiCycle assay, HIV-1 NL4-3 in H9 cells with TZM-bl readout. Format: cell-based. The following applies: 72 h, then TZM-bl reporter cells 48 h; for IC50: Human immunodeficiency virus 1, NL43, H9 cells. On the procedure:
The antiviral activity was evaluated by measuring the half maximal inhibitory concentration (IC50) values against the HIV-1 wild-type reference strain NL4-3 in a TZM-bl cell line based phenotypic assay, named BiCycle Assay. The method includes a first round of infection of human T cell lymphoma derived clone H9 at multiplicity of infection of 0.03 in the presence of serial dilution of compounds in a 96-well plate. After 72 h, 50 microliters of supernatants from each well were used to infect the TZM-bl cell line, which allow the quantitative analysis of HIV infection by measuring the expression of the luciferase gene integrated in the genome of the cells under the control of HIV-1 LTR promoter.
After 48 h, dose-response curves were generated by measuring reporter gene expression in each well by using the Bright-Glo Luciferase Assay (Promega) through the GloMax Discovery reader (Promega). Relative luminescence units measured in each well were elaborated with the GraphPad Software v.6.0 to calculate IC50 values. All the viruses and cell lines were obtained through the NIH AIDS Reagent Program (www.aidsreagent.org).

Series [6] concerns H9 cells. As to the kind of experiment: Cytotoxicity assay in H9 cells (CellTiter-Glo 2.0). It is filed as cell-based, human. The conditions noted are these: CC50 in H9 cells versus anti-HIV-1 IC50. The protocol:
as §1

The mark [7] stands for this setting: read-out: AqS (aqueous solubility).
[8] abbreviates: read-out: AqS as Log of molar concentration (LogS) (converted).

From article PMC6864647, “Synthesis and Antiviral Activity of Novel 1,3,4-Thiadiazole Inhibitors of DDX3X” (Molecules, 2019) come the findings set out here.

Read-outs that look alike come from different tables or passages of the source.

The CC50 is the concentration giving 50% cytotoxicity. Higher therefore signals better tolerance by the cells. What is called IC50 is the concentration that gives 50% inhibition.

T1 sequence (O00571 whole entry): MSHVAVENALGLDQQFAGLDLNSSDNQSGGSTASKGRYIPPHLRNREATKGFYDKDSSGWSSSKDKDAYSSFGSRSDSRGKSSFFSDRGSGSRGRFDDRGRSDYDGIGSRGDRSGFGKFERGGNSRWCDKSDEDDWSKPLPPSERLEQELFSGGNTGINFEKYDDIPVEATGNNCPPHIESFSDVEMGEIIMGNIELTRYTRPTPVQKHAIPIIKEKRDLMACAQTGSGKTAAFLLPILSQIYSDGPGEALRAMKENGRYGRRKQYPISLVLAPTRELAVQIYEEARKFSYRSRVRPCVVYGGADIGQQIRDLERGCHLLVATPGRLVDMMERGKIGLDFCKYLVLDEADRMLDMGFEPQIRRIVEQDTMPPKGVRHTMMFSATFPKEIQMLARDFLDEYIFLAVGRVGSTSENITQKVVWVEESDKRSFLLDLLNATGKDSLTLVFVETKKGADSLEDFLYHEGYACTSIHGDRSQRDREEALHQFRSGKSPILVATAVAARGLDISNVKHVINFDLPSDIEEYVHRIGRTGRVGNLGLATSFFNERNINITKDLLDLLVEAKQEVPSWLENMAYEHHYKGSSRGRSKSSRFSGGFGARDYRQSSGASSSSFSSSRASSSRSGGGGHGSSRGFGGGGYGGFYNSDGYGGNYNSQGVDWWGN

As for `COc1ccc(-c2nnc(N3C(=O)c4ccccc4C3=O)s2)cc1` [Compound 17, 2-(5-(4-Methoxyphenyl)-1,3,4-thiadiazol-2-yl)isoindoline-1,3-dione], in series [1], the “DDX3X ATPase Ki (apparent dissociation constant for inhibitor binding)” value is “completely inactive” and the Ki is more than 50 µM.
For `COc1ccc(-c2nnc(NC(=O)c3ccccc3C(=O)O)s2)cc1` [Compound 23, 2-((5-(4-Methoxyphenyl)-1,3,4-thiadiazol-2-yl)carbamoyl)benzoic acid], the Ki in series [1] came to 1.3 ± 0.2 µM. Moreover, the CC50 at 72 h in series [2] was more than 200 µM. Besides, the “Percentage in parentheses beside AppP (membrane retention)” value (from here on “Percentage in parentheses beside AppP”) in series [3] was 0%. The Papp at 5 h, 0.5 mM in series [3] is less than 0.1 ×10⁻⁶ cm/s. The solubility at 24 h is 3.3 µg/mL in series [4] (setting [7]) and 9.33 µM in series [4] (setting [8]). Besides, the “HIV-1 (NL4-3) IC50” value in series [5] (H9 cells) was “inactive”. This compound had an IC50 in series [5] of more than 50 µM.
With `O=C(O)c1ccccc1C(=O)Nc1nnc(-c2ccccc2Br)s1` [Compound 25, 2-((5-(2-Bromophenyl)-1,3,4-thiadiazol-2-yl)carbamoyl)benzoic acid], in series [1], the “DDX3X ATPase Ki (apparent dissociation constant for inhibitor binding)” value was “abolished”.
For `CN(C)c1ccc(-c2nnc(NC(=O)c3ccccc3C(=O)O)s2)cc1` [Compound 27, 2-((5-(4-(Dimethylamino)phenyl)-1,3,4-thiadiazol-2-yl)carbamoyl)benzoic acid], the Ki in series [1] amounted to 11.9 ± 1.9 µM. Moreover, the CC50 at 72 h in series [2] was 130 µM. This compound had an IC50 in series [5] of more than 50 µM.
Consider `O=C(O)c1ccccc1C(=O)Nc1nnc(-c2ccccc2[N+](=O)[O-])s1` [Compound 28, 2-((5-(2-Nitrophenyl)-1,3,4-thiadiazol-2-yl)carbamoyl)benzoic acid], for which, in series [1], the Ki stood at 18.3 ± 1.8 µM. The midpoint of cytotoxicity in series [2], the CC50 at 72 h, lay at 74 µM. In addition, the “SI (selectivity index)” value in series [6] came to 1.7. In addition, the midpoint of inhibition in series [5], the IC50, lay at 42.3 ± 5.2 µM.
On to `COC(=O)c1ccccc1C(=O)Nc1nnc(-c2ccc(OC)cc2)s1` [Compound 29, Methyl 2-((5-(4-methoxyphenyl)-1,3,4-thiadiazol-2-yl)carbamoyl)benzoate], for which, in series [1], the Ki was 15.6 µM. Besides, the CC50 at 72 h in series [2] was found to be 45 µM. For the same compound, in series [3], the “Percentage in parentheses beside AppP” value is given as 36% and the Papp at 5 h, 0.5 mM was 0.7 ×10⁻⁶ cm/s. Moreover, the solubility at 24 h in series [4] (setting [7]) is 0.5 µg/mL. Also, in series [4] (setting [8]), the solubility at 24 h is 1.35 µM.
Take `CCOC(=O)c1ccccc1C(=O)Nc1nnc(-c2ccc(OC)cc2)s1` [Compound 30, Ethyl 2-((5-(4-methoxyphenyl)-1,3,4-thiadiazol-2-yl)carbamoyl)benzoate]: the Ki in series [1] is 20.1 ± 2.1 µM. Also, the CC50 at 72 h in series [2] is more than 200 µM. Moreover, in series [3], the “Percentage in parentheses beside AppP” value was 4.6%. For the same compound, in series [3], the Papp at 5 h, 0.5 mM came out at 2.1 ×10⁻⁶ cm/s. The solubility at 24 h is less than 0.1 µg/mL in series [4] (setting [7]) and more than 1 µM in series [4] (setting [8]). Besides, in series [5], the IC50 was more than 50 µM.
Consider `CCCCOC(=O)c1ccccc1C(=O)Nc1nnc(-c2ccc(OC)cc2)s1` [Compound 31, Butyl 2-((5-(4-methoxyphenyl)-1,3,4-thiadiazol-2-yl)carbamoyl)benzoate], for which the Ki in series [1] worked out at 23.5 ± 2.5 µM. Further, the CC50 at 72 h in series [2] was found to be 100 µM. Moreover, in series [3], the “Percentage in parentheses beside AppP” value came out at 25.9% and the Papp at 5 h, 0.5 mM stood at 6.1 ×10⁻⁶ cm/s. Moreover, the solubility at 24 h in series [4] (setting [7]) is less than 0.1 µg/mL. In series [4] (setting [8]), the solubility at 24 h was more than 1 µM. The compound also came in with an IC50 in series [5] of 16 ± 10 µM.
Consider `COC(=O)c1ccccc1C(=O)Nc1nnc(-c2ccccc2[N+](=O)[O-])s1` [Compound 32, Methyl 2-((5-(2-nitrophenyl)-1,3,4-thiadiazol-2-yl)carbamoyl)benzoate], for which the “DDX3X ATPase Ki (apparent dissociation constant for inhibitor binding)” value in series [1] is given as “annulled enzymatic inhibition”.
Take `O=C(Nc1nnc(-c2ccccc2[N+](=O)[O-])s1)c1ccccc1S(=O)(=O)O` [Compound 34, 2-((5-(2-Nitrophenyl)-1,3,4-thiadiazol-2-yl)carbamoyl)benzenesulfonic acid]: the Ki in series [1] came to 35.4 ± 3.5 µM. In addition, it took 110 µM to reach half-maximal cytotoxicity in series [2] (CC50 at 72 h). This compound came in with an IC50 in series [5] of more than 50 µM.
Regarding `Nc1ccccc1-c1nnc(NC(=O)c2ccccc2S(=O)(=O)O)s1` [Compound 35, 2-((5-(2-Aminophenyl)-1,3,4-thiadiazol-2-yl)carbamoyl)benzenesulfonic acid], the Ki in series [1] worked out at 20.1 ± 2.1 µM. In addition, the CC50 at 72 h in series [2] turned out to be 130 µM. The IC50 in series [5] was more than 50 µM.
For the compound `Nc1ccccc1-c1nnc(NC(=O)c2ccccc2C(=O)O)s1` [Compound 36, 2-((5-(2-Aminophenyl)-1,3,4-thiadiazol-2-yl)carbamoyl)benzoic acid], the “DDX3X ATPase Ki (apparent dissociation constant for inhibitor binding)” value in series [1] is recorded as “total loss of inhibitory capability”.
